Results reported in patent US20240108747A1, “EXTRACELLULAR VESICLE CONJUGATES AND USES THEREOF” (LONZA SALES AG, priority 2019, published 2024).
Starred links: 1 amine or outer side, 2 acyl side, 3 side chain; linkers in the order of their positions; H or OH if unused. Non-standard residues stand in square brackets, D forms with d. Residues, ends and D or L forms follow the SMILES beside them. *: point of attachment. Dolaproine = CO[C@@H]([C@@H]1CCCN1)[C@@H](C)C(=O)O; Hexanoyl(6-maleimido) = O=C1C=CC(=O)N1CCCCCC(=O)*; Dil = CC[C@H](C)[C@H](NC)[C@@H](CC(=O)O)OC; PABC = O=C(OCc1ccc(N[*:1])cc1)[*:2]; X1 = C[C@@H](N*)[C@@H](O)c1ccccc1; Cit = NC(=O)NCCC[C@H](N)C(=O)O; NMeV = CN[C@H](C(=O)O)C(C)C

Tests used:
[1] = tested on: LPA-induced histamine release; details: mice; cited from earlier work
[2] = cited from earlier work
mouse LPA-1 = mouse LPA-1 (Mus musculus, UniProt P61793); details: cited from earlier work
mouse LPA-1/CHO cells = details: read-out: IC50, inhibition of LPA-1-induced chemotaxis; cited from earlier work
[3] = tested on: human A2058 melanoma cells; details: read-out: IC50, inhibition of LPA-1-induced chemotaxis; cited from earlier work
recombinant human LPA-1 = recombinant human LPA-1 (Homo sapiens, UniProt Q92633); details: cited from earlier work
[4] = Phase 2 study (Palmer 2018); cited from earlier work
NLRP1 inflammasome = details: cited from earlier work
NLRP3 = NLRP3 (Sus scrofa, UniProt H2EW08); details: models for myocardial infarction; cited from earlier work
NLRC4 inflammasome = details: cited from earlier work
AIM2 inflammasome = details: cited from earlier work
TLR2 signaling = details: cited from earlier work
RAW264.7 (RAW) cells = assay: MMAE cytotoxicity / cell growth on RAW264.7 cells (IncuCyte); assay type: cell-based, mouse
Procedure: The dose-response effects of MMAE on RAW cell growth are shown in microphotographs (top), and measurements of cells growth (bottom left), and confluence (bottom right).
MMAE cytotoxicity was assessed on RAW264.7 (RAW) cells. RAW cells are a […] macrophage cell line. 10,000 RAW cells were seeded in each well of a 96 well plate, and cell growth was monitored using an IncuCyte instrument to image cells over a period of approximately 5 days. […] Images show cells after 5 days of treatment with the indicated dose of MMAE or DMSO; growth inhibition is evident from the decreased number of cells after treatment with MMAE, while cell death is indicated by the rounding up of cells (evident in the 10, 100, and 300 nM images). MMAE has a steep dose-response curve.

Sequence of NLRP3 (H2EW08 1-1036): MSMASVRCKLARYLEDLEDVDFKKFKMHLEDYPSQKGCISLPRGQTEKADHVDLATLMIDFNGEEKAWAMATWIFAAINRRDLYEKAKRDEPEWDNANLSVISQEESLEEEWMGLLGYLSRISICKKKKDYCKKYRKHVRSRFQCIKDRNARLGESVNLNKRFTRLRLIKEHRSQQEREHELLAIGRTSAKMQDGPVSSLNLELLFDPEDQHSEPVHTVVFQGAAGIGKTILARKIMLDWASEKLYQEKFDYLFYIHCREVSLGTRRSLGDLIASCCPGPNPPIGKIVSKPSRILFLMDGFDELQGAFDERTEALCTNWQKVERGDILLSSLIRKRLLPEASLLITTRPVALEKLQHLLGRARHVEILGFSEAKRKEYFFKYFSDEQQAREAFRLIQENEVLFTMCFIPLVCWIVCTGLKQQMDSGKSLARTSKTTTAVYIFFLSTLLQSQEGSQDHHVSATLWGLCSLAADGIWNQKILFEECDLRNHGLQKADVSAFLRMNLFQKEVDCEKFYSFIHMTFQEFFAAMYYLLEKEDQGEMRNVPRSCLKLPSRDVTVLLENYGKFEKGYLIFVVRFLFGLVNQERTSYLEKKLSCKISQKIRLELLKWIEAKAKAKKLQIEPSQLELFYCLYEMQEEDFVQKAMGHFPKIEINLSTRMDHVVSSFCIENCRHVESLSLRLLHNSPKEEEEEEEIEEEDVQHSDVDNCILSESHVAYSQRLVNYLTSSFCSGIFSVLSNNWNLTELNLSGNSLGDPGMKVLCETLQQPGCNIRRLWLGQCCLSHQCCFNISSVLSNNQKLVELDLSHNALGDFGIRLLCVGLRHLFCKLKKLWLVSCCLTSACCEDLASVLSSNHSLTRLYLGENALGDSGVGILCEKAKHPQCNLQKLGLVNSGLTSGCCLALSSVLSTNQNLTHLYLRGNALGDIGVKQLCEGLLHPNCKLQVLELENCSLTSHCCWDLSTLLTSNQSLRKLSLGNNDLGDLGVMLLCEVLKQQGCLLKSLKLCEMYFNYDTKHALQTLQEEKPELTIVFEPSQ
Sequence of recombinant human LPA-1 (Q92633 whole entry): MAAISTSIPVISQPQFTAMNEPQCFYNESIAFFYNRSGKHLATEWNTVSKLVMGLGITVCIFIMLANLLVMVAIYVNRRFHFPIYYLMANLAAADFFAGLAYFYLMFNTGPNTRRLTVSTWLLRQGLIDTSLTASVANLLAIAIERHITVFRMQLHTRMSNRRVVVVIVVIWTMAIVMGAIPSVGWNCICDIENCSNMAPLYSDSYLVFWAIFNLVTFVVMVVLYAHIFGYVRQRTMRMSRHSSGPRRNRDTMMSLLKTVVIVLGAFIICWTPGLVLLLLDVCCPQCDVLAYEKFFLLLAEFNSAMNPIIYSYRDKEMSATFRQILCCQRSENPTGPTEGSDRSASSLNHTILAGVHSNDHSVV
Sequence of mouse LPA-1 (P61793 whole entry): as the sequence (Q92633 whole entry) above, with I4A, I8S, P22Q, H40Y, I61V, E193D, N194H, I269V, S331N, T335N counted along it

Cc1noc(-c2ccc(-c3ccc(CC(=O)O)cc3)cc2)c1NC(=O)O[C@H](C)c1ccccc1 [AM095, 1,1′-Biphenyl]-4-acetic acid, 4′-[3-methyl-4-[[[(1R)-1-phenylethoxy]carbonyl]amino]-S-isoxazolyl[ ]-]
ED50, block of LPA-induced histamine release [1]: 8.3 mg/kg
ED50, reduction of BALF collagen and protein ([2]; in lungs): 10 mg/kg
macrophage and lymphocyte infiltration induced by bleomycin ([2]; mice): decrease both macrophage and lymphocyte infiltration
IC50 (mouse LPA-1): 730 nM
IC50 (mouse LPA-1/CHO cells): 780 nM
IC50 [3]: 230 nM
IC50 (recombinant human LPA-1): 980 nM

Cc1noc(-c2ccc(-c3ccc(C4(C(=O)O)CC4)cc3)cc2)c1NC(=O)O[C@H](C)c1ccccc1 [AM152, Cyclopropanecarboxylic acid, 1-[4′-[3-methyl-4-[[[(1R)-1-phenylethoxy]carbonyl]amino]-S-isoxazolyl][1,1′-biphenyl]-4-yl]-]
toxicity leading to early termination of the study [4]: gall bladder toxicity and early signs of liver toxicity

CC(C)(O)c1coc(S(=O)(=O)NC(=O)Nc2c3c(cc4c2CCC4)CCC3)c1 [MCC950, N-[[(1,2,3,5,6,7-hexahydro-s-indacen-4-yl)amino]carbonyl]-4-(1-hydroxy-1-methylethyl)-2-furansulfonamide]
inhibition of NLRP1 inflammasome (NLRP1 inflammasome): does not inhibit
NLRP3-induced IL-1β production (NLRP3): inhibits NLRP3-induced IL-1β production
inhibition of NLRC4 inflammasome (NLRC4 inflammasome): does not inhibit
inhibition of AIM2 inflammasome (AIM2 inflammasome): does not inhibit
inhibition of TLR2 signaling (TLR2 signaling): does not inhibit

CC[C@H](C)[C@@H]([C@@H](CC(=O)N1CCC[C@H]1[C@H](OC)[C@@H](C)C(=O)N[C@H](C)[C@@H](O)c1ccccc1)OC)N(C)C(=O)[C@@H](NC(=O)[C@@H](NC)C(C)C)C(C)C [MMAE, monomethyl auristatin E] (H-[NMeV]V[Dil][Dolaproine]-X1)
MMAE concentrations giving potent growth inhibition and cell death (RAW264.7 (RAW) cells; free drug, about 5 days, FIG. 7): above 1.1 nM

CC[C@H](C)[C@@H]([C@@H](CC(=O)N1CCC[C@H]1[C@H](OC)[C@@H](C)C(=O)N[C@H](C)[C@@H](O)c1ccccc1)OC)N(C)C(=O)[C@@H](NC(=O)[C@H](C(C)C)N(C)C(=O)OCc1ccc(NC(=O)[C@H](CCCNC(N)=O)NC(=O)[C@@H](NC(=O)CCCCCN2C(=O)C=CC2=O)C(C)C)cc1)C(C)C [vc-MMAE, maleimide-vc-PABC-MMAE] ({Hexanoyl(6-maleimido)}-V[Cit][PABC][NMeV]V[Dil][Dolaproine]-X1)
fold less toxic than unmodified MMAE (RAW264.7 (RAW) cells; administered to cells as a free drug, FIG. 8A): approximately 100 fold
